Counter-ions that a name gives are not always drawn. Like-named read-outs stand apart in the source and are kept apart here.
Key:
K pneumoniae = assay: Disk diffusion assay, K pneumoniae; assay type: cell-based
Procedure: (§1) The following disk diffusion assays were performed with example compounds described above to assess the ability of compounds to inhibit growth of microorganism. A compound that inhibits its target enzyme may perform poorly for a number of reasons, including low solubility in water or slow rate of transport across a microbial membrane.

S. aureus = assay: Disk diffusion assay, S. aureus; assay type: cell-based
Procedure: as §1

CalASADH = target: T1, CalASADH (Candida albicans, UniProt Q5ALM0); assay: Reversibility of CalASADH inactivation by exogenous thiols; assay type: biochemical; details: incubated 10 min, read-out: residual activity of CalASADH
T1 construct: His tag; made in house
T1 sequence (Q5ALM0 1-365): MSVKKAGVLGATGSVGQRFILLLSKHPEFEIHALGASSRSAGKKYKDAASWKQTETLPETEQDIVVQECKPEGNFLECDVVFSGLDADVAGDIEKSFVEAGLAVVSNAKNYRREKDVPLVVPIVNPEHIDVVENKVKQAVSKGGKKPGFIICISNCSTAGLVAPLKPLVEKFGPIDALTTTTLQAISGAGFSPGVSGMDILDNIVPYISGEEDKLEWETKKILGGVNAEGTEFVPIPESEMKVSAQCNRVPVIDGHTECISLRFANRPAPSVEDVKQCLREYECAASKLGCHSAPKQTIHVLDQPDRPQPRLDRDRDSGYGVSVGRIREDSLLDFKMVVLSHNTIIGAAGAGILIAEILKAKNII
Procedure: This loss of activity supports the hypothesis that these vinyl sulfones are covalently modifying this enzyme. To determine whether this inactivation can be reversed by the introduction of an exogenous nucleophile a large excess of either cysteine (5 mM) or glutathione (10 mM) was added to the reaction mixture after incubation, and the activity of this inactivated enzyme was then monitored. Samples of CalASADH that had been incubated either with 3 μM 4-(methylvinylsulfonyl)nitrobenzene or with 100 μM 3-(phenylsulfonyl)acrylic acid for 10 min were measured to have from 5 to 10% residual activity. At this point, after either cysteine or glutathione was added to each reaction mixture, the residual enzyme activity was monitored as described above.

[1] = target: Vibrio cholera ASADH (V. cholera ASADH), aspartate semialdehyde dehydrogenase; assay: Inactivation of the bacterial ASADH ortholog from Vibrio cholera by vinyl sulfones (comparison with the fungal enzyme); assay type: biochemical; details: FIG. 6, irreversible covalent inactivators
Source text: FIG. 6 is a table showing a comparison of the differences in affinities and rates of inactivation of example vinyl sulfones as inactivators of either a bacterial or a fungal ASADH, in accordance with some embodiments of the present technology; and
Enhanced reactivity upon binding to an enzyme target is a desirable property if these vinyl sulfones are to serve as effective antifungal agents. However, increased selectivity in target binding is equally important. […] The ASADH from the […] bacterium Vibrio cholera has >90% overall sequence homology to the C. albicans enzyme, with the exception of a helical domain insert (Arachea et al., 2010), and all of the essential active site functional amino acids are fully conserved between these enzyme forms. Five different vinyl sulfones that span the fungal ASADH potency spectrum were selected and examined as potential inactivators of the bacterial ASADH. […] However, importantly, several of these compounds already show some level of discrimination between the fungal and bacterial ASADHs (Table 3).
Ideally, any antifungal agent should have high specificity, interacting only with its intended target. […] Each of the vinyl sulfones that were examined as inactivators of a fungal ASADH were also found to inactivate the bacterial ASADH ortholog, but several of them do so with lower efficiencies. In particular, the best fungal ASADH inactivators with a polar functional group at the 4-position of the benzyl ring are from 7 to 9-fold less efficient when examined as bacterial ASADH inactivators (See e.g. Table 3). By contrast, the inactivators with this polar group in the 2- or 3-position show no significant differences in reactivity between the fungal and bacterial forms of ASADH. The respective active sites of these two ASADH orthologs are virtually identical. However, a conserved arginine (Arg-18) found in fungal ASADH that is proposed to interact with the 4-nitro or the 4-carboxy groups in these inactivators (FIG. 1) is replaced with either a valine or a threonine in the bacterial ASADH family.
The ASADH from Candida albicans (CalASADH) was purified using an ÄKTA chromatography system as previously described (Arachea et al., 2010), with only minor modifications. […] The enzyme activity was assayed at 25° C. by following the production of NADPH at 340 nm in a SpectraMax 190 plate reader (Molecular Devices). Enzyme inhibitors were evaluated by the same assay in the presence of 120 mM CHES buffer, pH 8.6, with 120 mM KCl, 0.3 mM ASA, 1.5 mM NADP, 20 mM phosphate and varying concentrations of each potential inhibitory compound to be tested. […]

[2] = target: T2, Candida albicans ASADH (CalASADH), aspartate semialdehyde dehydrogenase, his-tagged (Candida albicans, UniProt Q5ALM0); assay: Inhibition/time-dependent inactivation of Candida albicans ASADH by vinyl sulfones (purified his-tagged enzyme; NADPH production at 340 nm); assay type: biochemical; details: FIG. 5; pH 8.6, 25° C., 0.3 mM ASA, 1.5 mM NADP, 20 mM phosphate; irreversible covalent inactivators
T2 construct: His tag; made in house
T2 sequence (Q5ALM0 1-365): T1 sequence (Q5ALM0 1-365)
Procedure: FIG. 5 is a table showing the affinities and the rates of inactivation of example vinyl sulfones as inactivators of a fungal ASADH, in accordance with some embodiments of the present technology;
Their initial inhibition potencies (Ki values) were determined by varying the concentration of each vinyl sulfone in the presence of fixed, non-saturating substrate levels.
Aryl vinyl sulfones can be reasonably potent inhibitors of CalASADH, each inhibitor was then tested to determine if it would function as an enzyme inactivator. […] In most cases the residual enzyme activity, measured following a subsequent 20-fold dilution into an assay mixture, decreased to less than 5% of the control rate after incubation with low micromolar levels of these inactivators for 10 min or less. To determine the rate of inactivation the concentration of each vinyl sulfone in this pre-incubation mixture was then varied, centered around their initial measured Ki values. The rate of activity loss observed in each incubation reaction (kobs) was plotted against the inhibitor concentration to determine the inactivation rate (kinact) for that compound and the concentration that produces half-maximal inactivation (Ki). […] The proposed product of the reaction of the active site nucleophile (Cys-156) with this inactivator predicts key interactions of the p-nitro group with Arg-18 and Ser-187, and the protonation of the covalent intermediate by His-256. […] Reaction of this inactivator with the active site nucleophile (Cys-156) predicts keys interactions between its carboxyl group and several backbone amide nitrogens that would shift this adduct further from the active site base (His-256). FIG. 3 illustrates inactivation of Candida albicans ASADH by 4-(methylvinylsulfonyl)nitrobenzene. Plot of the natural log of the ratio of enzyme activity at each time point over the initial enzyme activity, showing the loss of activity as a functional of incubation time for different concentrations of inactivator: 0 μM, 0.75 μM, 1.5 μM, 3 μM, 6 μM. The resulting observed rates at each concentration (kobs) were plotted against the inactivator concentration and a non-linear fit to these replotted data yielded the rate of inactivation (kinact) and the inhibition constant (Ki).
The ASADH from Candida albicans (CalASADH) was purified using an ÄKTA chromatography system as previously described (Arachea et al., 2010), with only minor modifications. A nickel-immobilized metal affinity (IMAC) column was used for the purification of the his-tagged enzyme, with an initial buffer wash containing 20 mM imidazole to remove loosely bound proteins before elution with a 20 to 400 mM imidazole gradient. The enzyme activity was assayed at 25° C. by following the production of NADPH at 340 nm in a SpectraMax 190 plate reader (Molecular Devices). Enzyme inhibitors were evaluated by the same assay in the presence of 120 mM CHES buffer, pH 8.6, with 120 mM KCl, 0.3 mM ASA, 1.5 mM NADP, 20 mM phosphate and varying concentrations of each potential inhibitory compound to be tested. The data were fitted to a competitive inhibitor model which corrects for the levels of substrates present relative to their individual Km values.
To examine the possibility of enzyme inactivation each vinyl sulfone compound was incubated in a defined concentration range with 30 μg/ml of CalASADH, with the inhibitor concentrations grouped around their determined Ki values. Aliquots (10 μl) were removed from the enzyme-inhibitor reaction mixture at various times ranging from 30 secs to 60 min, with most compounds examined from 1 to 10 min at 2 min intervals. Each aliquot was then added to a 190 μl of the same assay mixture as described above for the inhibition studies to measure the residual enzyme activity. […]

C. auris ASADH = C. auris ASADH (Candidozyma auris, UniProt A0A2H0ZN20); assay: C. auris ASADH irreversible inhibition; assay type: biochemical
Procedure: These amino acid analogs may be synthesized in accordance with various techniques and schemes provided herein. Two are vinyl sulfones and one is an acrylamide. Accordingly, the core functional group of compounds described herein can be at least one of a vinyl sulfone and/or an acrylamide. The vinyl sulfones were tested against C. auris ASADH as irreversible inhibitors.

Chain of C. auris ASADH (A0A2H0ZN20 entry or part of it): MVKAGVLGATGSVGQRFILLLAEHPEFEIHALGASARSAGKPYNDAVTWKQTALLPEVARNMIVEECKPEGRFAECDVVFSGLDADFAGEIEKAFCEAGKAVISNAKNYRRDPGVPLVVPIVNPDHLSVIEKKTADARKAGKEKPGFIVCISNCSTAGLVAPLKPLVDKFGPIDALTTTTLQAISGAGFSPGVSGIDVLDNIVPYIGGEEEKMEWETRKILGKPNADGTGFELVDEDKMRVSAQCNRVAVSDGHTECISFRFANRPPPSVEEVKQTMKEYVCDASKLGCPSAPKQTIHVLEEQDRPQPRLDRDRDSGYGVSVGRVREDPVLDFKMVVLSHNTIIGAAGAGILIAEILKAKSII

Structure (SMILES) | Ki [2] | also measured
CS(=O)(=O)/C=C/c1cc(O)ccc1O [2-MSV-dihydroxbenzene, 2-(S-methylsulfonylvinyl)1,4-dihydroxybenzene] | – | disk diffusion, K pneumoniae (K pneumoniae; aromatic compounds): weak; disk diffusion, S. aureus (S. aureus; aromatic compounds): medium
O=C(O)/C=C/S(=O)(=O)c1ccccc1 [3-(phenylsulfonyl)acrylic acid] | – | remaining activity at 100 µM (CalASADH; 100 μM): 5 to 10%
CS(=O)(=O)/C=C/c1ccc([N+](=O)[O-])cc1 [4-(methylvinylsulfonyl)nitrobenzene, 4-(methylsulfonylvinyl)nitrobenzene] | – | remaining activity at 3 µM (CalASADH; 3 μM): 5 to 10%
CS(=O)(=O)/C=C/c1ccc(C(=O)O)cc1 [Compound 1, 4-(methylsulfonylvinyl)benzoic acid] | 0.78 ± 0.1 µM | Ki [1]: 4.45 ± 0.25 µM
CS(=O)(=O)/C=C/c1ccc([N+](=O)[O-])cc1 [Compound 2, 4-(methylsulfonylvinyl)nitrobenzene] | 1.02 ± 0.28 µM | Ki [1]: 6.29 ± 0.59 µM
CS(=O)(=O)/C=C/c1ccccn1 [Compound 3, 2-(methylsulfonylvinyl)pyridine] | 2.64 ± 0.22 µM | –
CS(=O)(=O)/C=C/c1ccc(O)c(O)c1 [Compound 4, 4-(methylsulfonylvinyl)-1,2-benzenediol] | 3.52 ± 0.42 µM | –
O=S(=O)(/C=C/c1ccncc1)c1ccccc1 [Compound 5, 4-(phenylsulfonylvinyl)pyridine] | 2.16 ± 0.24 µM | –
CS(=O)(=O)/C=C/c1ccccc1 [Compound 6, Methylsulfonylvinylbenzene] | 4.26 ± 0.83 µM | –
O=S(=O)(/C=C/c1ccccc1)C(F)(F)F [Compound 7, Trifluoromethylsulfonylvinylbenzene] | 21.7 ± 8 µM | –
O=S(=O)(/C=C/c1ccccn1)c1ccccc1 [Compound 8, 2-(Phenylsulfonylvinyl)pyridine] | 8.49 ± 0.94 µM | –
CS(=O)(=O)/C=C/c1ccncc1 [Compound 9, 4-(methylsulfonylvinyl)pyridine] | 5.69 ± 0.78 µM | –
CS(=O)(=O)/C=C/c1cccnc1 [Compound 10, 3-(methylsulfonylvinyl)pyridine] | 25.1 ± 6.8 µM | –
O=S(=O)(/C=C/c1cccnc1)c1ccccc1 [Compound 11, 3-(Phenylsulfonylvinyl)pyridine] | 42.2 ± 3 µM | –
CS(=O)(=O)/C=C/c1cccc([N+](=O)[O-])c1 [Compound 12, 3-(methylsulfonylvinyl)nitrobenzene] | 19.6 ± 1.4 µM | Ki [1]: 10.3 ± 2.3 µM
CS(=O)(=O)/C=C/c1cccc(C(=O)O)c1 [Compound 13, 3-(methylsulfonylvinyl)benzoic acid] | 36.9 ± 6.2 µM | –
CS(=O)(=O)/C=C/c1ccccc1[N+](=O)[O-] [Compound 14, 2-(methylsulfonylvinyl)nitrobenzene] | 56.7 ± 2.7 µM | Ki [1]: 2.57 ± 0.23 µM
O=C(O)/C=C/S(=O)(=O)c1ccccc1 [Compound 15, 3-(phenylsulfonyl)acrylic acid] | 67.1 ± 15.8 µM | –
CS(=O)(=O)/C=C/C(N)=O [MeSAm, 3-S-Methylsulfonylacrylamide] | – | disk diffusion, K pneumoniae (K pneumoniae; vinyl sulfone carboxamides): strong; disk diffusion, S. aureus (S. aureus; vinyl sulfone carboxamides): strong
NC(=O)/C=C/S(=O)(=O)c1ccccc1 [PhSAm, 3-S-Phenylsulfonylacrylamide] | – | disk diffusion, K pneumoniae (K pneumoniae; vinyl sulfone carboxamides): strong; disk diffusion, S. aureus (S. aureus; vinyl sulfone carboxamides): strong
NC(C/C=C/S(=O)(=O)Cc1ccccc1)C(=O)O (centres unmarked) [S-benzylsulfonylvinylalanine, 3-(benzylsulfonylvinyl)-alanine hydrochloride] | – | Ki (C. auris ASADH): 0.3 µM
CS(=O)(=O)C=CC[C@H](N)C(=O)O [S-methylsulfonylvinylacrylamide, 3-(S-methylsulfonylvinyl)-alanine hydrochloride] | – | Ki (C. auris ASADH; irreversible inhibitors, read-out: inhibitory constant): 0.1 µM

From US20240180158A1, “COMPOUNDS HAVING SELECTIVE INACTIVATION ACTIVITY” (University of North Carolina at Wilmington, priority 2021, published 2024)
